The nature of test [1]: growth inhibition of apl2Δ yeast, dose response, selectivity assay for post-Golgi transport modulator project, S. cerevisiae, secondary screen, background strain comparison (AID 789). To be noted: S. cerevisiae background (wild-type parent) strain growth inhibition.
Test [2] has as its system S. cerevisiae apl2Δ mutant growth inhibition. Described as above.

The source of these data is PubChem BioAssay AID789 (SRMLSC, 2007).

Activity calls are given as the source filed them. The rule behind the calls is not given here.

Turning to `Cc1cc(NCCCN2CCOCC2)n2ncc(-c3ccc(Cl)cc3)c2n1`, the values for the IC50 in test [1] and in test [2] were more than 10 µM and > 10 µM (inactive), respectively.
The like results for `CN1CCN(CCCNC(=O)Cn2nc(-c3ccccc3)ccc2=O)CC1` were, in that order, more than 10 µM and > 10 µM (inactive).
The like results for `CCCCS(=O)(=O)/C=C\C=C/S(=O)(=O)CCCC` were, in that order, 13.9 µM and 19.8 µM (inactive).
Taken in the same sequence, the figures for `Cc1cccc(CS(=O)(=O)Cc2ccc(C(=O)NCCCN3CCCC3)o2)c1` were more than 10 µM and > 10 µM (inactive).
For the compound `OC(COCc1ccc(Cl)cc1)CN1CC=C(c2ccccc2)CC1` (centres undefined), the IC50 was 20.8 µM in test [1] and 8.58 µM in test [2].
Taken in the same sequence, the figures for `CS(=O)(=O)N1CCC(C(=O)NCCN2CCN(Cc3ccccc3)CC2)CC1` were more than 10 µM and > 10 µM (inactive).
Taken in the same sequence, the figures for `Clc1ccc(-c2cnc(Oc3ccccc3)nc2)cc1` were more than 10 µM and > 10 µM (inactive).
The like results for `Cc1nc(NC(=O)c2ccccc2)sc1-c1csc(NCc2ccccc2)n1` were, in that order, more than 10 µM and > 10 µM (inactive).
In the case of `C=CCc1ccc(OCC(O)CN2CCC(Cc3ccccc3)CC2)c(OC)c1` (centres undefined), the half-inhibitory concentration (IC50) in test [1] was 19.1 µM; in test [2] it was 12.5 µM.
Taken in the same sequence, the figures for `CCOc1ccc(NC(=O)C/C(N)=N/O)cc1` were more than 10 µM and > 10 µM (inactive).
With `COC(=O)c1ccc(CSc2nnc(NC(C)C)s2)cc1`, the half-inhibitory concentration (IC50) is more than 10 µM in test [1] and > 10 µM (inactive) in test [2].
With `CSc1ncccc1C(=O)OCC(=O)N1CCOCC1`, the half-maximal inhibitory concentration (IC50) in test [1] was more than 10 µM; in test [2] it was > 10 µM (inactive).
The like results for `CCOC(=O)c1ccc(NC(=O)c2ccc(CN3CCOCC3)cc2)cc1` were, in that order, more than 10 µM and > 10 µM (inactive).
On to `O=C(NCc1ccco1)C(c1cccs1)N(C(=O)Cc1cccs1)c1ccccc1` (centres undefined), for which the half-maximal inhibitory concentration (IC50) in test [1] is more than 10 µM; in test [2], > 10 µM (inactive).
The like results for `O=C(NCc1ccc2c(c1)OCO2)c1ccc(-n2cnnn2)cc1` were, in that order, more than 10 µM and > 10 µM (inactive).
Taken in the same sequence, the figures for `O=C(Nc1cc(C(F)(F)F)ccc1-n1cncn1)c1ccc(-c2ccccc2)cc1` were more than 10 µM and > 10 µM (inactive).
With `COc1cccc(NC(=O)C2CCCN2C(=O)OCc2ccccc2)c1` (centres undefined), the figures for the IC50 in test [1] and in test [2] were more than 10 µM and > 10 µM (inactive), respectively.
Taken in the same sequence, the figures for `Cc1ccc(C(=O)OCn2ncc(Cl)c(Cl)c2=O)cc1` were 4.62 µM and > 10 µM (inactive).
Taken in the same sequence, the figures for `COCCNC(=O)C(c1ccc(F)cc1)N(CC1CCCO1)C(=O)CCC(=O)Nc1ccccn1` (centres undefined) were more than 10 µM and > 10 µM (inactive).
The like results for `O=[N+]([O-])c1ccc(N2CCN(S(=O)(=O)c3ccc(Cl)cc3)CC2)cc1NCc1cccnc1` were, in that order, more than 10 µM and > 10 µM (inactive).
For the compound `CCOc1cc(/C=C\[N+](=O)[O-])ccc1OCC(=O)Nc1ccccc1C`, the results for the 50% inhibitory concentration (IC50) in test [1] and in test [2] were more than 10 µM and > 10 µM (inactive), respectively.
The like results for `O=C(NC(C(=O)c1ccccc1)N1CCCCC1)c1ccccc1` (centres undefined) were, in that order, more than 10 µM and > 10 µM (inactive).
Taken in the same sequence, the figures for `Cc1cccnc1Nc1nc(-c2ccccn2)cs1` were more than 10 µM and > 10 µM (inactive).
`O=C(NCC(c1cccnc1)N1CCN(c2ccccc2)CC1)C1CCCCC1` (centres undefined): the concentration for half-maximal inhibition (IC50) was more than 10 µM in test [1] and > 10 µM (inactive) in test [2].
Taken in the same sequence, the figures for `Cc1cc(C)c2c(c1)/C(=C/C(=O)c1ccc(Br)s1)C(=O)N2` were 1.42 µM and 1.55 µM (inactive).
`CCOC(=O)C1CCN(Cc2cnc(Oc3ccc(Cl)cc3C)s2)CC1`: the IC50 in test [1] is more than 10 µM; in test [2] it was > 10 µM (inactive).
Taken in the same sequence, the figures for `COC(=O)c1ccc(NC(=O)c2cn(-c3ccccc3)nc2-c2ccncc2)cc1` were more than 10 µM and > 10 µM (inactive).
Taken in the same sequence, the figures for `CCN1CCN(c2c(Cl)cccc2NC(=O)c2ccc(Br)o2)CC1` were more than 10 µM and > 10 µM (inactive).
The like results for `CCCC(=O)N1CCN(c2ccc(NC(=O)c3cc4ccccc4o3)cc2Cl)CC1` were, in that order, 19.2 µM and 12.5 µM.
For `CCOC(=O)c1cccnc1SCc1cc(=O)n2ccccc2n1`, the half-maximal inhibitory concentration (IC50) in test [1] is more than 10 µM; in test [2], > 10 µM (inactive).
For the compound `CC1CCCN(CCOCCOc2ccc(Cl)cc2Br)C1` (centres undefined), the values for the IC50 in test [1] and in test [2] were more than 10 µM and 21.7 µM, respectively.
The like results for `CCN(CC)c1ccc(-c2nc3cnccc3n2C)cc1` were, in that order, more than 10 µM and > 10 µM (inactive).
The like results for `C/C(=N\N=C(/N)SC1CC(=O)N(c2ccc(Cl)c(Cl)c2)C1=O)c1cccs1` (centres undefined) were, in that order, 5.98 µM and > 10 µM (inactive).
The like results for `Cc1ccc(S(=O)(=O)N2CC3CC(C2)c2cccc(=O)n2C3)cc1` (centres undefined) were, in that order, more than 10 µM and > 10 µM (inactive).
On to `O=C(Cn1nnc(-c2ccc(S(=O)(=O)N3CCCC3)cc2)n1)NCC1CCCO1` (centres undefined), for which the IC50 is more than 10 µM in test [1] and > 10 µM (inactive) in test [2].
Taken in the same sequence, the figures for `O=C(C1COc2ccccc2O1)N1CCN(Cc2ccc3c(c2)OCO3)CC1` (centres undefined) were more than 10 µM and > 10 µM (inactive).
Taken in the same sequence, the figures for `COc1ccc(C2=NC(C(F)(F)F)(C(F)(F)F)c3c(n(C)c(=O)n(C)c3=O)N2)cc1` were more than 10 µM and > 10 µM (inactive).
The like results for `CCOC(=O)c1c(-n2c(C)cc(C=C3C(=O)NC(=S)NC3=O)c2C)sc2c1CCCC2` were, in that order, 11.5 µM and > 10 µM (inactive).
With `Clc1ccc(-c2n[nH]c3c2CCC3)c(Cl)c1`, the results for the half-maximal inhibitory concentration (IC50) in test [1] and in test [2] were 0.518 µM and 1.12 µM (inactive), respectively.
The like results for `COc1ccccc1N1CCN(Cc2ccccc2F)CC1` were, in that order, more than 10 µM and > 10 µM (inactive).
Taken in the same sequence, the figures for `CC(C)c1ccc(C2C3CSCC=C3C(C#N)=C(N)C2(C#N)C#N)cc1` (centres undefined) were 0.843 µM and 1.84 µM (inactive).
As to `OC(c1ccc(Cl)cc1Cl)C(Cc1cccnc1)n1cncn1` (centres undefined), the half-inhibitory concentration (IC50) in test [1] was more than 10 µM; in test [2], > 10 µM (inactive).
Taken in the same sequence, the figures for `CCOc1cccc(C(=O)Nc2cccnc2)c1` were more than 10 µM and > 10 µM (inactive).
`CCCCSCCCNC(=O)Nc1cccc(OC)c1`: the concentration for half-maximal inhibition (IC50) in test [1] is more than 10 µM; in test [2], > 10 µM (inactive).
As to `CCOC(=O)Cn1cc(C=O)c2ccccc21`, the half-maximal inhibitory concentration (IC50) in test [1] was more than 10 µM; in test [2], > 10 µM (inactive).
The like results for `C=C(C)COc1ccc(-c2ncncc2Oc2ccc(OC)cc2)c(O)c1` were, in that order, more than 10 µM and > 10 µM (inactive).
The like results for `CCC(C)(C)NC(=O)CN(C(=O)CCC(=O)Nc1ccccn1)c1ccc(F)c(Cl)c1` were, in that order, more than 10 µM and > 10 µM (inactive).
The like results for `CC(C)OC(=O)CSc1nnc(-c2ccc(Cl)cc2)n1N` were, in that order, more than 10 µM and > 10 µM (inactive).
Turning to `CCOC(=O)N1CCN(c2ccc(S(=O)(=O)N(Cc3ccccc3)Cc3ccccc3)cn2)CC1`, the IC50 in test [1] is more than 10 µM; in test [2] it was > 10 µM (inactive).
For `CC(C)Oc1ccc(/C(O)=C2/C(=O)C(=O)N(CCN(C)C)C2c2ccco2)cc1` (centres undefined), the IC50 in test [1] was more than 10 µM; in test [2], > 10 µM (inactive).
Turning to `O=C(c1ccc(Cl)cc1Cl)N1CCC(c2nc3c(nnn3Cc3ccco3)c(=O)[nH]2)CC1`, the IC50 in test [1] is more than 10 µM; in test [2], > 10 µM (inactive).
Turning to `Nc1cc(N)c(OCC(F)(F)F)cc1OCC(F)(F)F`, the IC50 in test [1] was more than 10 µM; in test [2], > 10 µM (inactive).
Taken in the same sequence, the figures for `O=C(C1CCN(S(=O)(=O)c2cccs2)CC1)N1CCCCCC1` were more than 10 µM and > 10 µM (inactive).
The like results for `O=C(OCn1ncc(Cl)c(Cl)c1=O)c1ccc(C(F)(F)F)cc1` were, in that order, more than 10 µM and > 10 µM (inactive).
Taken in the same sequence, the figures for `Cc1ccc(C(C)C)c(OCCCN2CC(C)OC(C)C2)c1` (centres undefined) were more than 10 µM and > 10 µM (inactive).
As for `CCOc1ccc(-c2[nH]ncc2Oc2ccccc2OCC)c(O)c1`, the half-maximal inhibitory concentration (IC50) in test [1] is 16 µM; in test [2], 13.4 µM.
For the compound `O=C(OCn1ncc(Cl)c(Cl)c1=O)c1ccccc1Cl`, the results for the IC50 in test [1] and in test [2] were 16.6 µM and > 10 µM (inactive), respectively.
The like results for `CCC(C)c1ccc(OCCCCN2CCOCC2)cc1` (centres undefined) were, in that order, more than 10 µM and 24 µM.
Taken in the same sequence, the figures for `Cc1c(Cc2ccccc2)c(=O)oc2c(C)c(OCc3nn[nH]n3)ccc12` were more than 10 µM and > 10 µM (inactive).
The like results for `COC(=O)C1=CN(CCCN2CCCC2=O)C=C(C(=O)OC)C1c1ccccc1C(F)(F)F` were, in that order, more than 10 µM and > 10 µM (inactive).
For `Cc1c(Cl)c([N+](=O)[O-])nn1Cc1ccc(C(=O)N/N=C\c2cccc(Br)c2)o1`, the IC50 in test [1] is more than 10 µM; in test [2] it was > 10 µM (inactive).
The like results for `O=S(=O)(c1cnccc1N1CCN(/N=C/c2ccc(Br)cc2)CC1)N1CCCCC1` were, in that order, more than 10 µM and > 10 µM (inactive).
Taken in the same sequence, the figures for `CCSc1nnc(NC(=O)NCC(F)(F)F)s1` were more than 10 µM and > 10 µM (inactive).
The like results for `O=C(COc1ccc(Br)cc1F)NC1CCN(Cc2ccccc2)CC1` were, in that order, more than 10 µM and > 10 µM (inactive).
For `COc1cccc(-c2cc(C(=O)N3CCN(C(c4ccccc4)c4ccccc4)CC3)no2)c1`, the half-maximal inhibitory concentration (IC50) is more than 10 µM in test [1] and > 10 µM (inactive) in test [2].
With `Cc1cc(=O)oc2c(CN3CCCCC3)c(O)c(Cl)cc12`, the concentration for half-maximal inhibition (IC50) was more than 10 µM in test [1] and > 10 µM (inactive) in test [2].
The like results for `O=C1CC(N2CCN(c3ccc(Cl)c(Cl)c3)CC2)C(=O)N1` (centres undefined) were, in that order, more than 10 µM and > 10 µM (inactive).

As usually defined, the IC50 is the concentration needed to halve the response being measured.
